This is an account of results in ChEMBL document CHEMBL2385034, “Discovery, synthesis and in combo studies of a tetrazole analogue of clofibric acid as a potent hypoglycemic agent” (2013).

Each structure is given as a SMILES string. Active and inactive are the calls of the source. The calls are words filed in the database; no cut-off is given here.

For test [1], the target named is 11-beta-hydroxysteroid dehydrogenase 1 (Homo sapiens) (UniProt P28845). Put plainly: Inhibition of full-length human 11beta-HSD1 expressed in HEK293 cells at 10 uM after 2 hrs by scintillation proximity assay relative to control. It counts as cell-based. Background: SPA uses beads or plates that emit light when radiolabelled molecules are held near them.
The species named for test [2] is Rattus norvegicus. As to the kind of experiment: Hypoglycemic activity in STZ-nicotinamide-induced Wistar rat diabetic model after 1 to 7 hrs. It counts as functional, organism-based.
Test [3] has as its system Rattus norvegicus. As to the kind of experiment: Hypoglycemic activity in STZ-nicotinamide-induced Wistar rat diabetic model at 50 mg/kg, ig after 1 to 7 hrs relative to control. The following applies: route intragastric. It counts as functional.
For test [4], the target named is 11-beta-hydroxysteroid dehydrogenase 1 (Homo sapiens) (UniProt P28845). Put plainly: Inhibition of full-length human 11beta-HSD1 expressed in HEK293 cells at 10 uM after 2 hrs by scintillation proximity assay relative to clofibric acid. It counts as cell-based.
Test [5] shares this target. Put plainly: Inhibition of full-length human 11beta-HSD1 expressed in HEK293 cells at 10 uM after 2 hrs by scintillation proximity assay relative to clofibrate. It counts as cell-based.
The subject of test [6] is Rattus norvegicus. As to the kind of experiment: Hypoglycemic activity in STZ-nicotinamide-induced Wistar rat diabetic model at 5 mg/kg, po after 1 to 7 hrs. It counts as functional, organism-based. Set-up: dose 5 mg/kg.

11-beta-hydroxysteroid dehydrogenase 1 (Homo sapiens), sequence (P28845 whole entry, looked up): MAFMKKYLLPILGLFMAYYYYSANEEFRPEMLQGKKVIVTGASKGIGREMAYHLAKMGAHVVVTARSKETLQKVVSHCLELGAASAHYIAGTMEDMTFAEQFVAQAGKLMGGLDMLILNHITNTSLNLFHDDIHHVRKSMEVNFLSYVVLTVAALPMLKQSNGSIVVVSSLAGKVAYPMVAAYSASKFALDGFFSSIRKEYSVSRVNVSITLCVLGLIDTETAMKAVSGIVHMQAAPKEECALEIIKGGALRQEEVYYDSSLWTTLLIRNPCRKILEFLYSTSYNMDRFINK

In test [1], `CC1(C)[C@@H](OC(=O)CCC(=O)O)CC[C@]2(C)[C@H]3C(=O)C=C4[C@@H]5C[C@@](C)(C(=O)O)CC[C@]5(C)CC[C@@]4(C)[C@]3(C)CC[C@@H]12` yielded an inhibition of 78.3%. Take `CCOC(=O)C(C)(C)Oc1ccc(Cl)cc1`: the inhibition in test [1] is 18.1%. For the molecule `CC(C)(Oc1ccc(Cl)cc1)C(=O)O`, in the test listed under Rattus norvegicus [2], the result was inactive. Further, the inhibition in test [1] was 19.1%. `CC(C)(Oc1ccc(Cl)cc1)C(=O)Nc1nnn[nH]1` returned an Activity in the test with Rattus norvegicus [3] of 16%. The fold change (FC) in test [4] and in test [5] was 2.5 in each case. Besides, the inhibition in test [1] stood at 51.2%. Regarding `COc1ccc(Cl)cc1C(=O)NCCc1ccc(S(=O)(=O)NC(=O)NC2CCCCC2)cc1`, the result in the test with Rattus norvegicus [6] was Active.

In general, inhibition refers to the drop in the measured response relative to a control, in per cent. A higher inhibition goes with a strong effect.
